Results reported in PubChem BioAssay (NCI).
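Method: 48-hour compound exposure of cells in 96-well plates, five concentrations, linear interpolation of endpoints. The concentration for 50% growth inhibition is given as GI50. TGI is the concentration that stops growth completely.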

What was measured:
Assay in all cases: inhibition of tumour cell growth, NCI panel, 48 h
[1] = test system: A498 renal
[2] = test system: A549 NSCLC
[3] = test system: ACHN renal
[4] = test system: CCRF-CEM leukemia
[5] = test system: COLO 205 colon
[6] = test system: DLD-1 colon
[7] = test system: DMS 114 small cell lung
[8] = test system: DMS 273 small cell lung
[9] = test system: EKVX NSCLC
[10] = test system: HCT-116 colon
[11] = test system: HCT-15 colon
[12] = test system: HL-60(TB) leukemia
[13] = test system: HOP-18 NSCLC
[14] = test system: HOP-62 NSCLC
[15] = test system: HOP-92 NSCLC
[16] = test system: K-562 leukemia
[17] = test system: KM20L2 colon
[18] = test system: LOX IMVI melanoma
[19] = test system: LXFL 529 NSCLC
[20] = test system: M14 melanoma
[21] = test system: MOLT-4 leukemia
[22] = test system: NCI-H23 lung
[23] = test system: NCI-H460 lung
[24] = test system: NCI-H522 lung
[25] = test system: OVCAR-8 ovarian
[26] = test system: RPMI-8226 leukemia
[27] = test system: RXF 393 renal
[28] = test system: RXF-631 renal
[29] = test system: SF-268 CNS
[30] = test system: SF-539 CNS
[31] = test system: SK-MEL-28 melanoma
[32] = test system: SK-MEL-5 melanoma
[33] = test system: SK-OV-3 ovarian
[34] = test system: SN12C renal
[35] = test system: SW-620 colon
[36] = test system: TK-10 renal
[37] = test system: U251 CNS
[38] = test system: UO-31 renal
[39] = test system: XF 498 CNS
[40] = test system: 786-0 renal
[41] = test system: CAKI-1 renal
[42] = test system: HCC-2998 colon
[43] = test system: HT29 colon
[44] = test system: IGROV1 ovarian
[45] = test system: M19-MEL melanoma
[46] = test system: OVCAR-3 ovarian
[47] = test system: OVCAR-4 ovarian
[48] = test system: SF-295 CNS
[49] = test system: SNB-19 CNS
[50] = test system: SNB-75 CNS
[51] = test system: SNB-78 CNS
[52] = test system: UACC-62 melanoma
[53] = test system: KM12 colon
[54] = test system: MALME-3M melanoma
[55] = test system: NCI-H226 lung
[56] = test system: OVCAR-5 ovarian
[57] = test system: SK-MEL-2 melanoma
[58] = test system: SR leukemia
[59] = test system: UACC-257 melanoma

CCc1nc2ccccc2c(=O)n1/N=C(\N=Nc1ccc(Cl)cc1)c1ccc(N(C)C)cc1
TGI [1]: > 100000 nM
TGI [2]: > 100000 nM
TGI [3]: > 100000 nM
TGI [4]: > 100000 nM
TGI [5]: 73500 nM
TGI [6]: > 100000 nM
TGI [7]: 47000 nM
TGI [8]: > 100000 nM
TGI [9]: > 100000 nM
TGI [10]: 73600 nM
TGI [11]: > 100000 nM
TGI [12]: 51600 nM
TGI [13]: > 100000 nM
TGI [14]: 50000 nM
TGI [15]: 59000 nM
TGI [16]: 79300 nM
TGI [17]: 69900 nM
TGI [18]: > 100000 nM
TGI [19]: > 100000 nM
TGI [20]: > 100000 nM
TGI [21]: 92200 nM
TGI [22]: 92400 nM
TGI [23]: > 100000 nM
TGI [24]: 66900 nM
TGI [25]: > 100000 nM
TGI [26]: 80700 nM
TGI [27]: > 100000 nM
TGI [28]: > 100000 nM
TGI [29]: > 100000 nM
TGI [30]: > 100000 nM
TGI [31]: > 100000 nM
TGI [32]: 64600 nM
TGI [33]: 99400 nM
TGI [34]: > 100000 nM
TGI [35]: > 100000 nM
TGI [36]: > 100000 nM
TGI [37]: > 100000 nM
TGI [38]: 60100 nM
TGI [39]: 80700 nM

c1ccc([CH2][Sn]([CH2]c2ccccc2)([S]c2cccc3cccnc23)[S]c2cccc3cccnc23)cc1
GI50 [40]: 314 nM
TGI [40]: 1050 nM
GI50 [1]: 288 nM
TGI [1]: 950 nM
GI50 [3]: 302 nM
TGI [3]: 985 nM
GI50 [41]: 420 nM
TGI [41]: 1020 nM
GI50 [4]: 102 nM
TGI [4]: 686 nM
GI50 [5]: 80.1 nM
TGI [5]: 366 nM
GI50 [6]: 282 nM
TGI [6]: 886 nM
GI50 [7]: 175 nM
TGI [7]: 378 nM
GI50 [9]: 666 nM
TGI [9]: 2030 nM
GI50 [42]: 139 nM
TGI [42]: 334 nM
GI50 [10]: 165 nM
TGI [10]: 351 nM
GI50 [11]: 200 nM
TGI [11]: 476 nM
GI50 [12]: 273 nM
TGI [12]: 687 nM
GI50 [13]: 246 nM
TGI [13]: 840 nM
GI50 [14]: 764 nM
TGI [14]: 6940 nM
GI50 [43]: 175 nM
TGI [43]: 390 nM
GI50 [44]: 289 nM
TGI [44]: 849 nM
GI50 [17]: 365 nM
TGI [17]: 1140 nM
GI50 [18]: 215 nM
TGI [18]: 442 nM
GI50 [19]: 101 nM
TGI [19]: 244 nM
GI50 [20]: 221 nM
TGI [20]: 511 nM
GI50 [45]: 276 nM
TGI [45]: 739 nM
GI50 [22]: 273 nM
TGI [22]: 998 nM
GI50 [23]: 273 nM
TGI [23]: 1010 nM
GI50 [46]: 136 nM
TGI [46]: 383 nM
GI50 [47]: 172 nM
TGI [47]: 422 nM
GI50 [25]: 361 nM
TGI [25]: 1400 nM
GI50 [28]: 225 nM
TGI [28]: 552 nM
GI50 [29]: 489 nM
TGI [29]: 2300 nM
GI50 [48]: 394 nM
TGI [48]: 2290 nM
GI50 [30]: 260 nM
TGI [30]: 662 nM
GI50 [31]: 201 nM
TGI [31]: 864 nM
GI50 [32]: 299 nM
TGI [32]: 1180 nM
GI50 [33]: 1760 nM
TGI [33]: 3150 nM
GI50 [34]: 303 nM
TGI [34]: 1190 nM
GI50 [49]: 853 nM
TGI [49]: 2070 nM
GI50 [50]: 749 nM
TGI [50]: 2020 nM
GI50 [51]: 382 nM
TGI [51]: 1500 nM
GI50 [35]: 210 nM
TGI [35]: 813 nM
GI50 [36]: 326 nM
TGI [36]: 1060 nM
GI50 [37]: 341 nM
TGI [37]: 1140 nM
GI50 [52]: 211 nM
TGI [52]: 496 nM
GI50 [38]: 187 nM
TGI [38]: 399 nM
GI50 [39]: 109 nM
TGI [39]: 367 nM

[N-]=[N+]=Nc1ccc(S(=O)(=O)Oc2cc(OS(=O)(=O)c3ccc(N=[N+]=[N-])cc3)cc(OS(=O)(=O)c3ccc(N=[N+]=[N-])cc3)c2)cc1
TGI [40]: > 100000 nM
TGI [1]: > 100000 nM
TGI [2]: > 100000 nM
TGI [3]: > 10000 nM
TGI [41]: > 10000 nM
TGI [4]: > 100000 nM
TGI [5]: > 10000 nM
TGI [6]: > 100000 nM
TGI [7]: > 100000 nM
TGI [8]: > 100000 nM
TGI [9]: > 100000 nM
TGI [42]: > 100000 nM
TGI [10]: > 100000 nM
TGI [11]: > 100000 nM
TGI [13]: > 100000 nM
TGI [14]: > 100000 nM
TGI [15]: > 100000 nM
TGI [43]: > 100000 nM
TGI [44]: > 100000 nM
TGI [16]: > 100000 nM
TGI [53]: > 100000 nM
TGI [17]: > 100000 nM
TGI [18]: > 100000 nM
TGI [19]: > 100000 nM
TGI [20]: > 100000 nM
TGI [45]: > 100000 nM
TGI [54]: > 100000 nM
TGI [21]: > 100000 nM
TGI [55]: > 10000 nM
TGI [22]: > 100000 nM
TGI [23]: > 100000 nM
TGI [24]: > 100000 nM
TGI [46]: > 100000 nM
TGI [47]: > 10000 nM
TGI [56]: > 100000 nM
TGI [25]: > 10000 nM
TGI [26]: > 100000 nM
TGI [27]: > 100000 nM
TGI [28]: > 100000 nM
TGI [29]: > 100000 nM
TGI [48]: > 100000 nM
TGI [30]: > 100000 nM
TGI [57]: > 100000 nM
TGI [31]: > 100000 nM
TGI [32]: > 100000 nM
TGI [34]: > 10000 nM
TGI [49]: > 10000 nM
TGI [50]: > 10000 nM
TGI [51]: > 100000 nM
TGI [58]: > 100000 nM
TGI [35]: > 10000 nM
TGI [36]: > 100000 nM
TGI [37]: > 100000 nM
TGI [59]: > 100000 nM
TGI [52]: > 100000 nM
TGI [38]: > 100000 nM
TGI [39]: > 100000 nM
